The values that follow come from article PMC6223132 (Journal of controlled release : official journal of the …, 2018).

Data set [1] relates to aerosolized F. novicida U112. It is filed as in vivo, C57Bl/6 mice. The following applies: n=8.
A further data set concerns Francisella tularensis. The following applies: cited from earlier work.
A short description of data set [2]: In vivo pharmacokinetics and biodistribution of drugamer-released ciprofloxacin. The following applies: single dose 20 mg/kg intratracheal, over 2 h.

The term MIC denotes the lowest concentration found to suppress growth.

Values after ≈ are worked out from the molar mass of the structure shown.

Turning to `O=C(O)c1cn(C2CC2)c2cc(N3CCNCC3)c(F)cc2c1=O` [free ciprofloxacin, ciprofloxacin], the survival rate in data set [1] was determined as 0%. Further, in the data set with Francisella tularensis, the minimum inhibitory concentration (MIC) is 0.03 µg/mL (≈ 0.0905 µM). Further, the “elimination from the lungs” value in data set [2] was “rapid elimination”.
